pIC50: −log10 of the molar value.

The target in the assay is PI3Kα (Homo sapiens, UniProt P42336, H1047R). Description: ADP-Glo IC50 assay. The class given is biochemical. To be noted: class symbols; key not given. On the technique in general: ADP-Glo first removes unused ATP, then detects ADP through luciferase.
Sequence of PI3Kα (P42336 whole entry H1047R): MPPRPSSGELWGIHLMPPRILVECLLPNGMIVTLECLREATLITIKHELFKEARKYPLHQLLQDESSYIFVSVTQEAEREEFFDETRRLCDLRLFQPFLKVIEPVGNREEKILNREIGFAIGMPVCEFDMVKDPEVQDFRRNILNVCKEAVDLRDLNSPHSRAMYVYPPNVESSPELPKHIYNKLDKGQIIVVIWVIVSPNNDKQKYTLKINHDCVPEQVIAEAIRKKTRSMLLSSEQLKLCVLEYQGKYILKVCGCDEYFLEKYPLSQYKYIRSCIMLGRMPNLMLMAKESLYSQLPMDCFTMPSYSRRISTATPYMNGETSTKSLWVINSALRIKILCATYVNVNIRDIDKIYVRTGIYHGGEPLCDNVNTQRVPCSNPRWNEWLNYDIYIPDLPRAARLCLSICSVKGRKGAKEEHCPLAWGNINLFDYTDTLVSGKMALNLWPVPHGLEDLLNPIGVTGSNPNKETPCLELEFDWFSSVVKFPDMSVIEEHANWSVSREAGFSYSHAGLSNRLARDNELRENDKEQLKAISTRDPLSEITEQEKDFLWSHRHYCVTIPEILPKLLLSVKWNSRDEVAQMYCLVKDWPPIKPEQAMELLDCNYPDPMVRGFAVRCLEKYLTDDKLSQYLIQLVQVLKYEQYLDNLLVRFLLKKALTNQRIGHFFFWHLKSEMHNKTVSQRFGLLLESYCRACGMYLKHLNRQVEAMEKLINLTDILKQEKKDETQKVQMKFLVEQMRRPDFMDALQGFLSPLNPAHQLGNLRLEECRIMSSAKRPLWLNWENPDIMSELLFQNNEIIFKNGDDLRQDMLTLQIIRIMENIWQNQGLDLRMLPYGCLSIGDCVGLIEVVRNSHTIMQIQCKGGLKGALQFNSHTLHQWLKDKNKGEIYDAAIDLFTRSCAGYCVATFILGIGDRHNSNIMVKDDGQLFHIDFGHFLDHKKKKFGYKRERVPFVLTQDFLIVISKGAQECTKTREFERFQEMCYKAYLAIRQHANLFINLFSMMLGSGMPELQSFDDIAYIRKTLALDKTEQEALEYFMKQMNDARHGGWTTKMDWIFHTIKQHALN
Sequence of PI3Kα (P27986 whole entry partner): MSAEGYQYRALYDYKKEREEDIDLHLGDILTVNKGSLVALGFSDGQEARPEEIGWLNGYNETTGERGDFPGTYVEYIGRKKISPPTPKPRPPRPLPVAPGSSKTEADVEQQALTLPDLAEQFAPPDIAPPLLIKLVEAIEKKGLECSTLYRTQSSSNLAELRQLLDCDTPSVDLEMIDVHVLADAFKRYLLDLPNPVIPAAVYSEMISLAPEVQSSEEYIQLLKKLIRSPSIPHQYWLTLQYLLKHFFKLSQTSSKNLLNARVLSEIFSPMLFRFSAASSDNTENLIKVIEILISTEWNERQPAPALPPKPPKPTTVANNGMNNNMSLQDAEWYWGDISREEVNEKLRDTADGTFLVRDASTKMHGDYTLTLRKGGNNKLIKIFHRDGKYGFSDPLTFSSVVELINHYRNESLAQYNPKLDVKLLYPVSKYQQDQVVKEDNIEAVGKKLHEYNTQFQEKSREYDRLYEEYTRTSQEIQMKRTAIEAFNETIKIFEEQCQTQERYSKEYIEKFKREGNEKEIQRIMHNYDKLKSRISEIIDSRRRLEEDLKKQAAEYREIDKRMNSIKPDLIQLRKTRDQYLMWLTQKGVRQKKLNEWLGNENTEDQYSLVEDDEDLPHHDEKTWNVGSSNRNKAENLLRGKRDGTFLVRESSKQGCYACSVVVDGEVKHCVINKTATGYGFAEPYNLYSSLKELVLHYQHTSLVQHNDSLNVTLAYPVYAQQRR
With `O=C1CCC(N2Cc3cc(C(=O)NCCCCCCCCCNC(=O)c4cc(NC(=O)c5cccc(C(F)(F)F)c5)c5c(c4)C(=O)N[C@H]5c4cc(F)ccc4Cl)ccc3C2=O)C(=O)N1` (stereo partly drawn) [Example I-162], the pIC50 (commonly −log10 of the IC50, conventionally taken in molar units) was 6.00 to 6.30. With `NC(=O)CCCCCCCCCNC(=O)c1cc(NC(=O)c2nsc3ccccc23)c2n1CC(=O)N[C@H]2c1cc(F)ccc1Cl` [Example I-104] the figure was above 7.00; with `Cc1ncsc1-c1ccc([C@H](C)NC(=O)[C@@H]2C[C@@H](O)CN2C(=O)[C@@H](NC(=O)CCCCCCCCCNC(=O)c2cc(NC(=O)c3cc(F)cc(C(F)(F)F)c3)c3c(c2)C(=O)N[C@@H]3c2cc(F)ccc2Cl)C(C)(C)C)cc1` [Example I-81], 6.30 to 7.00; with `Cc1ccccc1Nc1ncc(C(=O)NCCOCCOCCOCCOCCC(=O)N[C@H](C(=O)N2C[C@H](O)C[C@H]2C(=O)NCc2ccc(-c3scnc3C)cc2)C(C)(C)C)cc1NC(=O)c1csc2ccccc12` [Example I-14], 6.00 to 6.30. For `Cc1ccccc1Nc1ncc(C(=O)NCCc2ccc(Nc3ccc4c(c3)C(=O)N(C3CCC(=O)NC3=O)C4=O)cc2)cc1NC(=O)c1csc2ccccc12` (stereo not drawn) [Example I-64] the value was 6.30 to 7.00; for `Cc1ccccc1Nc1ncc(C(=O)NCCCCCCCCNC(=O)c2ccc3c(c2)CN(C2CCC(=O)NC2=O)C3=O)cc1NC(=O)c1csc2ccccc12` (stereo not drawn) [Example I-21], 6.30 to 7.00. For `O=C1CCC(N2C(=O)c3ccc(NCCCCCCCNC(=O)c4cc(NC(=O)c5cc(F)cc(C(F)(F)F)c5)c5c(c4)C(=O)N[C@@H]5c4cc(F)ccc4Cl)cc3C2=O)C(=O)N1` (stereo partly drawn) [Example I-89] the value was 6.00 to 6.30; for `Cc1ccccc1Nc1ncc(C(=O)NCCCNC(=O)c2ccc3c(c2)CN(C2CCC(=O)NC2=O)C3=O)cc1NC(=O)c1csc2ccccc12` (stereo not drawn) [Example I-61], 6.30 to 7.00.

For `Cc1ccccc1Nc1ncc(C(=O)NCCOCCOCCOCCOCCC(=O)NCc2ccc3c(c2)CN(C2CCC(=O)NC2=O)C3=O)cc1NC(=O)c1csc2ccccc12` (stereo not drawn) [Example I-47], the pIC50 was 5.00 to 6.00. For `Cc1cc([C@@H](C)Nc2ccccc2C(=O)O)c2oc(N3CCN(C(=O)CCOCCNc4ccc5c(c4)C(=O)N(C4CCC(=O)NC4=O)C5=O)CC3)cc(=O)c2c1` (stereo partly drawn) [Example I-144] the value was 5.00 to 6.00; for `Cc1cc([C@H](C)Nc2ccccc2C(=O)O)c2oc(N3CCN(C(=O)CCCNc4ccc5c(c4)C(=O)N(C4CCC(=O)NC4=O)C5=O)CC3)cc(=O)c2c1` (stereo partly drawn) [Example I-147], 5.00 to 6.00. With `Cc1cc([C@H](C)Nc2ccccc2C(=O)O)c2oc(N3CCN(C(=O)CCOCCNc4cccc5c4C(=O)N(C4CCC(=O)NC4=O)C5=O)CC3)cc(=O)c2c1` (stereo partly drawn) [Example I-148], the pIC50 was 5.00 to 6.00. As for `Cc1cc([C@H](C)Nc2ccccc2)c2oc(N3CCN(C(=O)CCOCCOCCNC(=O)c4cnc(Nc5ccccc5C)c(NC(=O)c5csc6ccccc56)c4)CC3)cc(=O)c2c1` [Example I-112], the pIC50 is 5.00 to 6.00. Consider `O=C1CCC(N2Cc3cc(C(=O)NCCCCCCCCCNC(=O)c4cc(NC(=O)c5cccc(C(F)(F)F)c5)c5c(c4)C(=O)N[C@@H]5c4cc(F)ccc4Cl)ccc3C2=O)C(=O)N1` (stereo partly drawn) [Example I-155], for which the pIC50 is 5.00 to 6.00. `O=C(O)CCCCCCCCCNC(=O)c1cc(NC(=O)c2cc(F)cc(C(F)(F)F)c2)c2c(c1)C(=O)N[C@H]2c1cc(F)ccc1Cl` [Example I-86] gave a pIC50 of 5.00 to 6.00.

`NC(=O)CCCCCCCCCNC(=O)c1cc(NC(=O)c2nsc3ccccc23)c2n1CC(=O)N[C@@H]2c1cc(F)ccc1Cl` [Example I-103] gave a pIC50 above 7.00. `Cc1ncsc1-c1ccc(CNC(=O)[C@@H]2C[C@@H](O)CN2C(=O)[C@@H](NC(=O)CCCCCCCCCNC(=O)c2cc(NC(=O)c3nsc4ccccc34)c3n2CC(=O)N[C@@H]3c2cc(F)ccc2Cl)C(C)(C)C)cc1` [Example I-107] showed a pIC50 above 7.00.

With `O=C1CCC(N2C(=O)c3ccc(NCCCCNC(=O)c4cnc(Nc5cc(F)ccc5Cl)c(NC(=O)c5csc6ccccc56)c4)cc3C2=O)C(=O)N1` (stereo not drawn) [Example I-97], the pIC50 is 6.30 to 7.00. With `Cc1ccccc1Nc1ncc(C(=O)NCCOCCOCCOCCOCCOCCOCCC(=O)N[C@H](C(=O)N2C[C@H](O)C[C@H]2C(=O)NCc2ccc(-c3scnc3C)cc2)C(C)(C)C)cc1NC(=O)c1csc2ccccc12` [Example I-32] the figure was 5.00 to 6.00; with `Cc1ccccc1Nc1ncc(C(=O)NCCCCC(=O)N[C@H](C(=O)N2C[C@H](O)C[C@H]2C(=O)N[C@@H](C)c2ccc(-c3scnc3C)cc2)C(C)(C)C)cc1NC(=O)c1csc2ccccc12` [Example I-65], 6.00 to 6.30. With `O=C(O)CCCCCCCCCNC(=O)c1cc(NC(=O)c2cc(F)cc(C(F)(F)F)c2)c2c(c1)C(=O)N[C@@H]2c1cc(F)ccc1Cl` [Example I-76] the figure was above 7.00; with `Cc1cc([C@@H](C)Nc2ccccc2C(=O)O)c2oc(N3CCN(C(=O)CCOCCNc4cccc5c4C(=O)N(C4CCC(=O)NC4=O)C5=O)CC3)cc(=O)c2c1` (stereo partly drawn) [Example I-145], 5.00 to 6.00; with `NC(=O)CCCCCCCCCNC(=O)c1cc(NC(=O)c2cc(F)cc(C(F)(F)F)c2)c2c(c1)C(=O)N[C@H]2c1cc(F)ccc1Cl` [Example I-79], 5.00 to 6.00. For `Cc1cc([C@H](C)Nc2ccccc2C(=O)O)c2oc(N3CCN(C(=O)CCCCCNc4cccc5c4C(=O)N(C4CCC(=O)NC4=O)C5=O)CC3)cc(=O)c2c1` (stereo partly drawn) [Example I-137] the value was 5.00 to 6.00; for `O=C1CCC(N2Cc3cc(C(=O)NCCCCCCCCCCNC(=O)c4cc(NC(=O)c5cccc(C(F)(F)F)c5)c5c(c4)C(=O)N[C@@H]5c4cc(F)ccc4Cl)ccc3C2=O)C(=O)N1` (stereo partly drawn) [Example I-154], 5.00 to 6.00; for `O=C1CCC(N2Cc3cc(C#CCN4CCC(NC(=O)c5cnc(Nc6cc(F)ccc6Cl)c(NC(=O)c6csc7ccccc67)c5)CC4)ccc3C2=O)C(=O)N1` (stereo not drawn) [Example I-84], 5.00 to 6.00. Take `O=C1CCC(N2Cc3cc(C(=O)NCCCCCCCCNC(=O)c4cc(NC(=O)c5cccc(C(F)(F)F)c5)c5c(c4)C(=O)N[C@H]5c4cc(F)ccc4Cl)ccc3C2=O)C(=O)N1` (stereo partly drawn) [Example I-158]: the pIC50 was above 7.00. For `Cc1ccccc1Nc1ncc(C(=O)NCCCC#Cc2ccc3c(c2)CN(C2CCC(=O)NC2=O)C3=O)cc1NC(=O)c1csc2ccccc12` (stereo not drawn) [Example I-44] the value was 6.30 to 7.00; for `Cc1ccccc1Nc1ncc(C(=O)NCCCCCCC(=O)N[C@H](C(=O)N2C[C@H](O)C[C@H]2C(=O)NCc2ccc(-c3scnc3C)cc2)C(C)(C)C)cc1NC(=O)c1csc2ccccc12` [Example I-15], 6.30 to 7.00. For `Cc1ccccc1Nc1ncc(C(=O)NCCCNc2ccc3c(c2)C(=O)N(C2CCC(=O)NC2=O)C3=O)cc1NC(=O)c1csc2ccccc12` (stereo not drawn) [Example I-56] the value was above 7.00; for `Cc1ccccc1Nc1ncc(C(=O)NCCCCCCCNc2cccc3c2C(=O)N(C2CCC(=O)NC2=O)C3=O)cc1NC(=O)c1csc2ccccc12` (stereo not drawn) [Example I-42], 6.30 to 7.00; for `Cc1ccccc1Nc1ncc(C(=O)NCCCCCCCC(=O)N[C@H](C(=O)N2C[C@H](O)C[C@H]2C(=O)NCc2ccc(-c3scnc3C)cc2)C(C)(C)C)cc1NC(=O)c1csc2ccccc12` [Example I-18], 6.30 to 7.00. With `Cc1ccccc1Nc1ncc(C(=O)NCCCCCCC(=O)NCc2ccc3c(c2)CN(C2CCC(=O)NC2=O)C3=O)cc1NC(=O)c1csc2ccccc12` (stereo not drawn) [Example I-19] the figure was 6.30 to 7.00.

The values above are taken from patent US20260131009A1, “BIFUNCTIONAL PI3K-ALPHA INHIBITORS AND USES THEREOF” (Relay Therapeutics, Inc., priority 2021, published 2026).
